Assay results reported in the Biogen ADME set (Fang et al. 2023).
Converted amounts (≈) assume the structure as drawn.

Settings: for aqueous solubility: pH 6.8

| Structure (SMILES) | MDR1-MDCK efflux ratio | intrinsic clearance, human liver microsomes | intrinsic clearance, rat liver microsomes | aqueous solubility | fraction unbound, human plasma | fraction unbound, rat plasma |
| --- | --- | --- | --- | --- | --- | --- |
| Cc1c(-c2ccccc2)oc2c(C(=O)NCCCN3CCCCC3)cccc2c1=O | 11 | 13.3 mL/min/kg | 106 mL/min/kg | 48.7 µg/mL (≈ 120 µM) |  |  |
| COc1ccc(OCc2nn3c(-c4ccc(OC)cc4)nnc3s2)cc1 | 0.536 |  |  | 0.2 µg/mL (≈ 0.543 µM) |  |  |
| O=C(NCc1cc(F)cc(F)c1)c1ccccn1 | 0.719 | ≤ 4.74 mL/min/kg | 51.6 mL/min/kg | 43.4 µg/mL (≈ 175 µM) |  |  |
| c1cc(Nc2cc(C3CC3)[nH]n2)nc(Nc2ccc3nc[nH]c3c2)n1 | 2.39 | 15.1 mL/min/kg | 71.4 mL/min/kg |  |  |  |
| COC(c1ccccc1)(c1ccccc1)[C@H](Oc1nc(C)cc(C)n1)C(=O)O | 38.3 | ≤ 4.74 mL/min/kg | ≤ 10.7 mL/min/kg |  |  |  |
| O=C(NC1CCCCCC1)c1ccc(-c2cnco2)cc1 | 0.516 | 14.9 mL/min/kg | 90.4 mL/min/kg | 9.2 µg/mL (≈ 32.4 µM) |  |  |
| Cc1oc(C)c(C(=O)N(C)Cc2ccccc2N2CCOCC2)c1C | 1.58 | 916 mL/min/kg | 5800 mL/min/kg | 61.8 µg/mL (≈ 180 µM) |  |  |
| CCN1CCC(CCNc2ncc(C)c(N(C)C)n2)CC1 | 11.5 | ≤ 4.74 mL/min/kg | 323 mL/min/kg |  |  |  |
| O=C(CN1CCCN(c2ccc(C(F)(F)F)cn2)CC1)Nc1ccccc1Cl | 1.03 | 229 mL/min/kg | 1650 mL/min/kg | 11 µg/mL (≈ 26.6 µM) |  |  |
| C=CCn1cc(CNCc2csc3ccc(Cl)cc23)c(C)n1 |  | 347 mL/min/kg | 3200 mL/min/kg | 21.4 µg/mL (≈ 64.5 µM) |  |  |
| COc1cc(CNCCN2CCOCC2)cc(Cl)c1OCc1ccccc1 | 1.94 | 46.4 mL/min/kg | 330 mL/min/kg | 53.5 µg/mL (≈ 137 µM) |  |  |
| Cn1nccc1C(=O)C1CCN(C(=O)c2cc(C(C)(C)C)nn2C)CC1 |  | ≤ 4.74 mL/min/kg | 97.9 mL/min/kg |  |  |  |
| COc1ccc(/C=C/C(=O)c2c(C)nc3ccccc3c2N)cc1 | 0.197 | 182 mL/min/kg | 1190 mL/min/kg | 39.6 µg/mL (≈ 124 µM) |  |  |
| CC(C)[C@H](O)C(=O)N[C@@H](C)C(=O)N[C@@H]1C(=O)N(C)CCc2ccccc21 |  | 6.33 mL/min/kg | 14.2 mL/min/kg |  |  |  |
| COc1cc2c(NC3CCN(C(C)C)CC3)nc(N3CCC(F)(F)CC3)nc2cc1OCCCN1CCCC1 |  | ≤ 4.74 mL/min/kg | 26.3 mL/min/kg | 64.8 µg/mL (≈ 119 µM) |  |  |
| COc1ccccc1/C=C/CN1C[C@H]2CCCN2C[C@@H]1C | 0.741 | 16.8 mL/min/kg | 1450 mL/min/kg |  |  |  |
| CN(Cc1ccncc1)Cc1cc2ccccc2nc1O | 2.51 | 15.4 mL/min/kg | 222 mL/min/kg | 48.6 µg/mL (≈ 174 µM) |  |  |
| Cc1cc(OCCCS(C)(=O)=O)cc(C)c1-c1cccc(COc2ccc3c(c2)OC[C@@H]3CC(=O)O)c1 | 6.84 | 5.67 mL/min/kg | 28.3 mL/min/kg |  |  |  |
| COC1CCN(C(=O)Nc2cc(C(F)(F)F)cc(C(F)(F)F)c2)CC1 | 0.476 | 60 mL/min/kg | 158 mL/min/kg | 71.4 µg/mL (≈ 193 µM) |  |  |
| Cc1ccc(S(=O)(=O)Nc2ccc3c(c2)CCCN3C(=O)c2cccs2)cc1C |  | 364 mL/min/kg | 2380 mL/min/kg |  |  |  |

| Structure (SMILES) | MDR1-MDCK efflux ratio | intrinsic clearance, human liver microsomes | intrinsic clearance, rat liver microsomes | aqueous solubility | fraction unbound, human plasma | fraction unbound, rat plasma |
| --- | --- | --- | --- | --- | --- | --- |
| Cc1c(NC(=O)c2cc(C(N)=O)nc3cc(F)ccc23)c(C(F)(F)F)nn1Cc1ccc(C#N)cc1 | 82.1 |  |  | 0.18 µg/mL (≈ 0.363 µM) |  |  |
| O=C(NO)c1cnc(NC2(c3cccc(F)c3)CCCCC2)nc1 |  | 14.4 mL/min/kg | 306 mL/min/kg |  |  |  |
| Cc1c(C(=O)Nc2cnccn2)cccc1-c1ccccn1 |  | ≤ 4.74 mL/min/kg | 496 mL/min/kg |  |  |  |
| CC(=O)N(C)[C@H]1CC2(CCN(C(=O)COc3ccc(F)cc3F)CC2)OC[C@]1(C)O | 14.9 | ≤ 4.74 mL/min/kg | 15.4 mL/min/kg |  |  |  |
| COC(=O)c1c(C)[nH]c(C(=O)OCC(=O)N(C)Cc2cccs2)c1C | 1.47 | 54.1 mL/min/kg | 484 mL/min/kg | 40.6 µg/mL (≈ 111 µM) |  |  |
| O=C(c1ccc(NS(=O)(=O)c2cccc3cnccc23)cc1)N1CCCC1 | 79.1 | 26.7 mL/min/kg | 562 mL/min/kg |  |  |  |
| Cc1nc(CS(C)(=O)=O)sc1C(=O)Nc1ccccc1 |  | ≤ 4.74 mL/min/kg | ≤ 10.7 mL/min/kg |  |  |  |
| Cc1nnc(N2CC[C@H](O)C2)c(C#N)c1C | 1.3 | ≤ 4.74 mL/min/kg | ≤ 10.7 mL/min/kg | 31.2 µg/mL (≈ 143 µM) |  |  |
| CCN1CCCN(C(=O)Nc2ccc(COC3CCCC3)cc2)CC1 | 9.16 | 6.32 mL/min/kg | 287 mL/min/kg |  |  |  |
| C=CC(=O)N1CCC[C@H](n2c(=O)n(-c3ccc(Oc4ccccc4)cc3)c3c(N)ncnc32)C1 | 5.79 | 166 mL/min/kg | 516 mL/min/kg | 56.4 µg/mL (≈ 123 µM) | 0.0963 | 0.0189 |
| Cc1cc(NC(=O)CCc2cnn(C)c2)c2ccccc2n1 | 7.68 | ≤ 4.74 mL/min/kg | 25 mL/min/kg | 43.2 µg/mL (≈ 147 µM) |  |  |
| CCN(CC)C(=O)c1ccc(C2=CC3(CCNCC3)Oc3cccc(O)c32)cc1 | 20.9 | 9 mL/min/kg | 65.8 mL/min/kg |  |  |  |
| CCc1cc(NC(=O)Cc2c(C)nc3nc(SC)nn3c2C)[nH]n1 |  |  |  | 15.8 µg/mL (≈ 45.8 µM) |  |  |
| NC(=O)c1cccc(Cn2cnc3c(oc4ccccc43)c2=O)c1 | 13.9 | ≤ 4.74 mL/min/kg | 19 mL/min/kg |  |  |  |
| c1ccc(N2CCOCC2)c(CNc2cc(N3CCCC3)ncn2)c1 | 2.09 | 190 mL/min/kg | 1520 mL/min/kg |  |  |  |
| N#Cc1cc(-c2n[nH]c(-c3ccncc3)n2)ccn1 | 4.87 | 8.89 mL/min/kg | 129 mL/min/kg | 14.3 µg/mL (≈ 57.5 µM) |  |  |
| Fc1cccc(CN2CCN(c3ncccn3)CC2)c1 | 0.527 | 111 mL/min/kg | 1120 mL/min/kg | 38 µg/mL (≈ 140 µM) |  |  |
| COc1ccc(-c2c(C)n[nH]c2C)cn1 | 0.678 | ≤ 4.74 mL/min/kg | 52.2 mL/min/kg | 14.7 µg/mL (≈ 72.4 µM) |  |  |
| O=C(O)c1ccc(CCC(=O)N2CCc3c(F)cc(F)cc3C2)cc1 | 4.05 | ≤ 4.74 mL/min/kg | ≤ 10.7 mL/min/kg |  |  |  |
| O=c1[nH]c2nc(N3CCc4ccccc4C3)ncc2c(=O)n1-c1ccccc1 | 0.445 |  |  | 0.2 µg/mL (≈ 0.539 µM) |  |  |

| Structure (SMILES) | MDR1-MDCK efflux ratio | intrinsic clearance, human liver microsomes | intrinsic clearance, rat liver microsomes | aqueous solubility | fraction unbound, human plasma | fraction unbound, rat plasma |
| --- | --- | --- | --- | --- | --- | --- |
| CC(C)NC(=O)CN(C#N)c1ccccc1 |  | ≤ 4.74 mL/min/kg | ≤ 10.7 mL/min/kg |  |  |  |
| N#Cc1ccc(N2CCc3c(ncn3C3CC3)C2)nc1 | 0.877 | 13.4 mL/min/kg | 63.7 mL/min/kg | 45.5 µg/mL (≈ 172 µM) |  |  |
| Cc1cccc2cc(C(N)=S)/c(=N/Nc3ccccc3)oc12 |  |  |  | 0.48 µg/mL (≈ 1.55 µM) |  |  |
| C[C@H](C(=O)Nc1nc2ccccc2[nH]1)N1Cc2ccccc2C1=O |  | ≤ 4.74 mL/min/kg | 62.6 mL/min/kg | 26.5 µg/mL (≈ 82.6 µM) |  |  |
| CC(C)CC(=O)Nc1cccnc1N(C)C | 0.597 | ≤ 4.74 mL/min/kg | 57.9 mL/min/kg | 30.3 µg/mL (≈ 137 µM) |  |  |
| O=C(Nc1nc2ccccc2[nH]1)c1ccc(-n2cccc2)cc1 | 0.359 |  |  |  |  |  |
| CC(C)c1noc2nc(C3CC3)cc(C(=O)N3CC[C@H](N)C3)c12 | 128 | ≤ 4.74 mL/min/kg | ≤ 10.7 mL/min/kg | 34.1 µg/mL (≈ 108 µM) |  |  |
| O=C(NCC1(c2ccccc2)CC1)c1cccnc1 | 0.757 | ≤ 4.74 mL/min/kg | 231 mL/min/kg | 41.2 µg/mL (≈ 163 µM) |  |  |
| Cc1cc(N2CCC(C(=O)NC3CCCCC3)CC2)nc(-c2ccncc2)n1 |  | 67 mL/min/kg | 193 mL/min/kg |  |  |  |
| Cc1nc(C)c2c(C)c(C(=O)N(C)Cc3ccc(C)o3)sc2n1 | 1.1 | 36 mL/min/kg | 2890 mL/min/kg | 37.5 µg/mL (≈ 114 µM) |  |  |
| c1cnc(NCc2cccc(-c3cccnc3)c2)nc1 | 0.571 | 19.6 mL/min/kg | 148 mL/min/kg |  |  |  |
| NC(=O)C1CCN(C(=O)CCc2ccc(Cl)cc2)CC1 | 6.24 | ≤ 4.74 mL/min/kg | 135 mL/min/kg | 47.8 µg/mL (≈ 162 µM) |  |  |
| Cc1cc(C)nc(CNC(=O)CC2CCNCC2)n1 |  | ≤ 4.74 mL/min/kg | ≤ 10.7 mL/min/kg | 55.5 µg/mL (≈ 212 µM) |  |  |
| Cc1cc(C(=O)Nc2ncccc2C)c2ccccc2n1 |  | 13.7 mL/min/kg | 58.3 mL/min/kg | 44 µg/mL (≈ 159 µM) |  |  |
| C=CC(=O)Nc1cccc(Sc2nc(Nc3ccc(N4CCN(C)CC4)cc3)ncc2Cl)c1 |  |  |  | 0.4 µg/mL (≈ 0.832 µM) |  |  |
| CC(C)(C)CC(=O)N1CCC(OCCCN)CC1 | 8.05 | ≤ 4.74 mL/min/kg | ≤ 10.7 mL/min/kg | 50.6 µg/mL (≈ 198 µM) |  |  |
| CCc1cc(NS(C)(=O)=O)n(C)n1 | 2.54 | ≤ 4.74 mL/min/kg | ≤ 10.7 mL/min/kg |  |  |  |
| CCc1nnc2c3ccccc3nc(Nc3ccc(OC)cc3)n12 | 0.092 |  |  | 0.14 µg/mL (≈ 0.438 µM) |  |  |
| O=c1ccc(-c2ccc(F)cc2)nn1Cc1ccncc1 | 0.674 | 7.74 mL/min/kg | 56.5 mL/min/kg | 46 µg/mL (≈ 163 µM) |  |  |
